Test results reported in patent US9145411B2, “Substituted amino-pyrimidine derivatives” (Asana Biosciences, LLC, priority 2012, dated 2015).

Tests used:
[1] = system: pAkt(T308); assay: In-cell Western assay, pAkt(T308), U87MG cells; assay type: cell-based; details: Homo sapiens, U-87 MG, read-out: inhibition of pAkt(T308), IC50
Procedure: Cells from human prostate cancer cell line PC3 (American Type Culture Collection (ATCC), Manassas, Va. 20108 USA) were seeded at an optimal density of 22,000 cell/well in 96-well plates containing Ham's F12K medium (90 μL) and incubated overnight. The compound dilutions were carried out in 100% DMSO followed by a dilution in the medium. Test compounds were added in serial dilutions to the wells and incubated for 2 hours. The cells were washed and fixed with 4% paraformaldehyde. After incubation at room temperature for 1 hour in the dark, blocking was done for 2 hours at room temperature. […] IC50 values were calculated using a sigmoidal dose-response curve fit in GraphPad Prism® v5 software.
In-cell Western assays for pAkt(T308) and pS6RP were also carried out in a glioma cancer cell line with a PTEN null mutation (U87MG cells), in a similar manner to the protocol described above for PC3 cells, in order to assess the ability of the compounds to inhibit the Akt-pathway in a glioma cancer cell line. […] Compounds of the invention cause inhibition of pAkt(T308), pAkt(S473) and pS6RP in U87MG, BT474 and T47D cell lines as determined by these assays.

[2] = system: PC3 cells; assay: In vivo efficacy study (tumor growth suppression), PC3 xenograft; details: athymic male mice, after 14 days of dosing at 50 mg/kg qd po
Procedure: PC3 cells were cultured at 37° C. in a 5% CO2 incubator using Hams F12 K medium. Five million (5×10^6) cells were implanted subcutaneously to the right flank of athymic male mice (Harlan, age: 6-7 weeks, weight: about 20 g). Tumor bearing mice were randomized when the tumor volume reached about 100 mm^3 Ten mice were used per group. Compounds of formula (I) were typically formulated using HPCD in PBS, pH 7.4 or in 10% Ethanol/40% Solutol/50% 50 mM aq. methanesulfonic acid and dosed orally (dose volume, 10 mL/kg). Solutions of the compounds were prepared immediately before dosing the animals. A vehicle control and a reference compound were included along with test compounds.
The tumor size was measured on alternate days using Vernier® calipers. Assuming tumors to be ellipsoid, the tumor volume was calculated using the formula: V=(D×d^2)/2 • where: • V (mm^3) is tumor volume • D is longest diameter in mm • d is shortest diameter in mm.
Changes in tumor volume (Δ volumes) for each treated (T) and control (C) group were calculated by subtracting the mean tumor volume on the first day of treatment (starting day) from the mean tumor volume on the specified observation day. […]
Percentage tumor growth inhibition was calculated as [100−% T/C]. Percentage body weight change was calculated as [(Body weight on specified observation day−Body weight on starting day)/Body weight on starting day]×100. […]

[3] = target: PI3 kinase isoform β (Homo sapiens, UniProt P42338); assay: PI3 Kinase TR-FRET assay, isoform β; assay type: biochemical; details: read-out: inhibition of PI3 kinase isoform β, IC50
PI3 kinase isoform β, sequence (P42338 whole entry, the tested form may be a part, canonical isoform): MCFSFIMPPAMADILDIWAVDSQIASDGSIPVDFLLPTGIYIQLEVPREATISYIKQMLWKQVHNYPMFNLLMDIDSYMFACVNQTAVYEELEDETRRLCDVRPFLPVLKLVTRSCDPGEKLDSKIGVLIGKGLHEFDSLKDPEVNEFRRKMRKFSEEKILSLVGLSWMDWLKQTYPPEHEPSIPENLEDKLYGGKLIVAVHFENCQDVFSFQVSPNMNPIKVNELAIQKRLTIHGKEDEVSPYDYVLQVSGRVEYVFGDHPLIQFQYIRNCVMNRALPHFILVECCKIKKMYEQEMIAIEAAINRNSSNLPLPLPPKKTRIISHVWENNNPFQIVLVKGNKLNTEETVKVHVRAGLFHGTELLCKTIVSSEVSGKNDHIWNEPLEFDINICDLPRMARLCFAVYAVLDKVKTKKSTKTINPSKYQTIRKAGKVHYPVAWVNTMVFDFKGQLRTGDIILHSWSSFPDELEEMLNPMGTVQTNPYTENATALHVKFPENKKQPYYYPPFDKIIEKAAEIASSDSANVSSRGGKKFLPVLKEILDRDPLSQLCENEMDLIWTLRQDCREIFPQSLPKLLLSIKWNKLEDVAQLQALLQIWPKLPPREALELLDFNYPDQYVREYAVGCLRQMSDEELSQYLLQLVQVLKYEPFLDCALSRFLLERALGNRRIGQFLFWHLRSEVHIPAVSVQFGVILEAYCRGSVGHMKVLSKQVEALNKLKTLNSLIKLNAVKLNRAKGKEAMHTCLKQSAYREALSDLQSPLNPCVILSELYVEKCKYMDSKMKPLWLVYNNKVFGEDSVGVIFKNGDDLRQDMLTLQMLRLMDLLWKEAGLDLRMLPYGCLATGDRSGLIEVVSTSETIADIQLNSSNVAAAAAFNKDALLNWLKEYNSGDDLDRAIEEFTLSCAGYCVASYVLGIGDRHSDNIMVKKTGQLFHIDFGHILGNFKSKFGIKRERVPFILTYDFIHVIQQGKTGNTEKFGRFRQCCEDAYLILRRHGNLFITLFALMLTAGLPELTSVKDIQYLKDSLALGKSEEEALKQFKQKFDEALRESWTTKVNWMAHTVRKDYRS
PI3 kinase isoform β, sequence (P27986 whole entry partner, the tested form may be a part, canonical isoform): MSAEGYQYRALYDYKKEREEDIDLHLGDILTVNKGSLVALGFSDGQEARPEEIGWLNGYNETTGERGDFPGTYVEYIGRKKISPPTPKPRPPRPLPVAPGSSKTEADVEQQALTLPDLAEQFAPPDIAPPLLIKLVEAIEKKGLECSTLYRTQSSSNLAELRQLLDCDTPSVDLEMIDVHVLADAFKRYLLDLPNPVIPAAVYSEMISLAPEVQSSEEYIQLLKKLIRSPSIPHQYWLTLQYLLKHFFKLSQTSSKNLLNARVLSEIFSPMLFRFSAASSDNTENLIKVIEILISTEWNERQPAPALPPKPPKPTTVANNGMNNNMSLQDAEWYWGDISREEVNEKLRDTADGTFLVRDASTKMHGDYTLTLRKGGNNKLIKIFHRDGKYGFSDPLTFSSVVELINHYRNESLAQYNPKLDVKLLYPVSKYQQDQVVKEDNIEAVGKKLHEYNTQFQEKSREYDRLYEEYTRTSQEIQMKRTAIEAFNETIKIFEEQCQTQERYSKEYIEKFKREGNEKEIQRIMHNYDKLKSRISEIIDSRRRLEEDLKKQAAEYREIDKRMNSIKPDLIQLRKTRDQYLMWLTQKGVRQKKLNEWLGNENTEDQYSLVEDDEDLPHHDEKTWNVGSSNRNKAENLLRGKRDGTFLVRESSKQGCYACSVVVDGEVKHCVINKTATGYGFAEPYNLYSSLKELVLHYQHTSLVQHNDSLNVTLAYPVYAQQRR
Procedure: The ability of compounds of the invention to inhibit PI3K activity was determined in a homogeneous TR-FRET assay using a PI3K assay kit (Millipore, USA; cat #33-016) according to manufacturer's instructions. PI3-Kinases (isoforms α, β, γ and δ) catalyze the phosphorylation of phosphatidylinositol, PIP2 to PIP3 in the presence of ATP and Mg^2+. The PIP3 product is detected by displacement of biotin-PIP3 from an energy transfer complex consisting of Europium labeled anti-GST monoclonal antibody, a GST-tagged PH domain, biotinylated PIP3 and Streptavidin-APC. Excitation of Europium in the complex results in an energy transfer to the APC and a fluorescence emission at 665 nm. The PIP3 product displaces biotin-PIP3 from the complex resulting in a loss of energy transfer and thus a decrease in signal.
To test for the ability of compounds to inhibit the activity of PI3Kα (wild-type), exemplary compounds of formula (I) were dissolved in DMSO and directly distributed into 384-well plates at a volume of 0.5 μL. […] Fluorescence was measured at 615 and 665 nm upon excitation at 340 nm in a Victor™ V5 fluorometer (Perkin Elmer, USA). The fluorescence emission ratio at 665 to 615 nm, proportional to the kinase activity, was plotted against the compound concentration to generate dose-response curves and IC50 values were determined using GraphPad Prism® 5 software. […]

IC50 [1]: < 500 nM | IC50 [3]: < 500 nM
Structure (SMILES): CC(=O)Nc1cccc(-c2cnc3c(N4CCOCC4)nc(-c4cnc(N)nc4)nc3c2)c1 [Example 3, N-(3-(2-(2-Aminopyrimidin-5-yl)-4-morpholinopyrido[3,2-d]pyrimidin-7-yl)-phenyl)acetamide]
tumor growth inhibition relative to vehicle control group [2]: more than 40%
